Test results as given in PubChem BioAssay AID1963874 (Molecular Pharmacology Branch, DTP, NCI, 2024).

Test system: 253994-281-T-J1-PDC KRAS-mutant spheroids with HUVEC/MSC, viability
Test: Anticancer human tumor 253994-281-T-J1-PDC patient-derived colorectal carcinoma cell line growth inhibition [KRAS2]
Conditions: for IC50: curve of first compound; for viability, T/C: stronger effect = lower value; active = viability on the fitted dose curve at most 10% of control; inactive = the rest
In short: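 KRAS-mutant tumor cells were grown as spheroids with HUVEC endothelial cells and human MSCs as stroma. Targeted agents were tested alone and with KRAS pathway inhibitors. Doses started at or near clinical Cmax, or 10 microM, descending half-log.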

[1] = second compound 0.1 µM, first compound 0.000316 µM
[2] = second compound 0.1 µM, first compound 0.001 µM
[3] = second compound 0.1 µM, first compound 0.00316 µM
[4] = second compound 0.1 µM, first compound 0.01 µM
[5] = second compound 0.1 µM, first compound 0.0316 µM
[6] = second compound 0.1 µM, first compound 0.1 µM
[7] = second compound 0.316 µM, first compound 0.000316 µM
[8] = second compound 0.316 µM, first compound 0.001 µM
[9] = second compound 0.316 µM, first compound 0.00316 µM
[10] = second compound 0.316 µM, first compound 0.01 µM
[11] = second compound 0.316 µM, first compound 0.0316 µM
[12] = second compound 0.316 µM, first compound 0.1 µM
[13] = second compound 1 µM, first compound 0.000316 µM
[14] = second compound 1 µM, first compound 0.001 µM
[15] = second compound 1 µM, first compound 0.00316 µM
[16] = second compound 1 µM, first compound 0.01 µM
[17] = second compound 1 µM, first compound 0.0316 µM
[18] = second compound 1 µM, first compound 0.1 µM
[19] = second compound 3.16 µM, first compound 0.000316 µM
[20] = second compound 3.16 µM, first compound 0.001 µM
[21] = second compound 3.16 µM, first compound 0.00316 µM
[22] = second compound 3.16 µM, first compound 0.01 µM
[23] = second compound 3.16 µM, first compound 0.0316 µM
[24] = second compound 3.16 µM, first compound 0.1 µM
[25] = second compound 10 µM, first compound 0.000316 µM
[26] = second compound 10 µM, first compound 0.001 µM
[27] = second compound 10 µM, first compound 0.00316 µM
[28] = second compound 10 µM, first compound 0.01 µM
[29] = second compound 10 µM, first compound 0.0316 µM
[30] = second compound 10 µM, first compound 0.1 µM
[31] = second compound 0.1 µM, first compound 0.316 µM
[32] = second compound 0.1 µM, first compound 1 µM
[33] = second compound 0.1 µM, first compound 3.16 µM
[34] = second compound 0.1 µM, first compound 10 µM
[35] = second compound 0.316 µM, first compound 0.316 µM
[36] = second compound 0.316 µM, first compound 1 µM
[37] = second compound 0.316 µM, first compound 3.16 µM
[38] = second compound 0.316 µM, first compound 10 µM
[39] = second compound 1 µM, first compound 0.316 µM
[40] = second compound 1 µM, first compound 1 µM
[41] = second compound 1 µM, first compound 3.16 µM
[42] = second compound 1 µM, first compound 10 µM
[43] = second compound 3.16 µM, first compound 0.316 µM
[44] = second compound 3.16 µM, first compound 1 µM
[45] = second compound 3.16 µM, first compound 3.16 µM
[46] = second compound 3.16 µM, first compound 10 µM
[47] = second compound 10 µM, first compound 0.316 µM
[48] = second compound 10 µM, first compound 1 µM
[49] = second compound 10 µM, first compound 3.16 µM
[50] = second compound 10 µM, first compound 10 µM
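Also: spheroids exposed to agents for seven days before readout.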
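For viability, T/C in this document: percent of DMSO vehicle control viability.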

CC(C)n1nc(-c2ccc3oc(N)nc3c2)c2c(N)ncnc21 + CC1OCC2(CCN(c3cnc(Sc4ccnc(N)c4Cl)c(N)n3)CC2)C1N
< 0.000316 µM: IC50 (second compound 10 µM)
> 0.1 µM: IC50 (second compound 0.1 µM) | IC50 (second compound 0.316 µM)
inactive: viability, T/C [1] 97.9% | viability, T/C [2] 100% | viability, T/C [3] 101% | viability, T/C [4] 81% | viability, T/C [5] 76.5% | viability, T/C [6] 56.9% | viability, T/C [7] 93.6% | viability, T/C [8] 76.7% | viability, T/C [9] 78.9% | viability, T/C [10] 77.7% | viability, T/C [11] 68.5% | viability, T/C [12] 49.8% | viability, T/C [13] 85.3% | viability, T/C [14] 73.2% | viability, T/C [15] 82.8% | viability, T/C [16] 67.8% | viability, T/C [17] 57.6% | viability, T/C [18] 49.4% | viability, T/C [19] 62% | viability, T/C [20] 64.6% | viability, T/C [21] 67.3% | viability, T/C [22] 55.2% | viability, T/C [23] 44% | viability, T/C [24] 36.5% | viability, T/C [25] 40.1% | viability, T/C [26] 40.7% | viability, T/C [27] 43.2% | viability, T/C [28] 44.5% | viability, T/C [29] 39.2% | viability, T/C [30] 28.2%
0.0876 µM: IC50 (second compound 1 µM)
0.0177 µM: IC50 (second compound 3.16 µM)

CC(C)NCC(C(=O)N1CCN(c2ncnc3c2C(C)CC3O)CC1)c1ccc(Cl)cc1 (stereo not given) + C=CC(=O)N1CCN(c2nc(=O)n(-c3c(C)ccnc3C(C)C)c3nc(-c4c(O)cccc4F)c(F)cc23)C(C)C1
> 10 µM: IC50 (second compound 0.1 µM) | IC50 (second compound 0.316 µM) | IC50 (second compound 1 µM) | IC50 (second compound 3.16 µM) | IC50 (second compound 10 µM)
inactive: viability, T/C [5] 108% | viability, T/C [6] 95.9% | viability, T/C [31] 98.6% | viability, T/C [32] 109% | viability, T/C [33] 102% | viability, T/C [34] 86.4% | viability, T/C [11] 107% | viability, T/C [12] 105% | viability, T/C [35] 99.7% | viability, T/C [36] 92.2% | viability, T/C [37] 84.8% | viability, T/C [38] 91.6% | viability, T/C [17] 103% | viability, T/C [18] 119% | viability, T/C [39] 99.9% | viability, T/C [40] 99.5% | viability, T/C [41] 88.9% | viability, T/C [42] 92.8% | viability, T/C [23] 114% | viability, T/C [24] 106% | viability, T/C [43] 105% | viability, T/C [44] 87.2% | viability, T/C [45] 78% | viability, T/C [46] 79.5% | viability, T/C [29] 95.3% | viability, T/C [30] 97.9% | viability, T/C [47] 103% | viability, T/C [48] 103% | viability, T/C [49] 73.9% | viability, T/C [50] 104%

CCNC(=O)CC1N=C(c2ccc(Cl)cc2)c2cc(OC)ccc2-n2c(C)nnc21 (stereo not given) + C=CC(=O)N1CCN(c2nc(=O)n(-c3c(C)ccnc3C(C)C)c3nc(-c4c(O)cccc4F)c(F)cc23)C(C)C1
inactive: viability, T/C [5] 107% | viability, T/C [6] 123% | viability, T/C [31] 112% | viability, T/C [32] 102% | viability, T/C [33] 111% | viability, T/C [34] 98.6% | viability, T/C [11] 115% | viability, T/C [12] 105% | viability, T/C [35] 106% | viability, T/C [36] 93.1% | viability, T/C [37] 103% | viability, T/C [38] 78.5% | viability, T/C [17] 107% | viability, T/C [18] 102% | viability, T/C [39] 99% | viability, T/C [40] 108% | viability, T/C [41] 105% | viability, T/C [42] 101% | viability, T/C [23] 98.2% | viability, T/C [24] 106% | viability, T/C [43] 105% | viability, T/C [44] 99.9% | viability, T/C [45] 88.9% | viability, T/C [46] 81.3% | viability, T/C [29] 102% | viability, T/C [30] 105% | viability, T/C [47] 97.7% | viability, T/C [48] 102% | viability, T/C [49] 91.8% | viability, T/C [50] 81.9%
> 10 µM: IC50 (second compound 0.1 µM) | IC50 (second compound 0.316 µM) | IC50 (second compound 1 µM) | IC50 (second compound 3.16 µM) | IC50 (second compound 10 µM)

CC(C)NCC(C(=O)N1CCN(c2ncnc3c2C(C)CC3O)CC1)c1ccc(Cl)cc1 (stereo not given) + COc1cc2nc(C)nc(NC(C)c3cc(N)cc(C(F)(F)F)c3)c2cc1OC1CCOC1
inactive: viability, T/C [5] 86.1% | viability, T/C [6] 97.9% | viability, T/C [31] 92.5% | viability, T/C [32] 94.6% | viability, T/C [33] 93% | viability, T/C [34] 97.1% | viability, T/C [11] 86.3% | viability, T/C [12] 85.7% | viability, T/C [35] 78.7% | viability, T/C [36] 87.6% | viability, T/C [37] 82% | viability, T/C [38] 90.2% | viability, T/C [17] 84.3% | viability, T/C [18] 83.4% | viability, T/C [39] 94.1% | viability, T/C [40] 86.2% | viability, T/C [41] 92.4% | viability, T/C [42] 96.4% | viability, T/C [23] 83.2% | viability, T/C [24] 87.4% | viability, T/C [43] 85.9% | viability, T/C [44] 94.2% | viability, T/C [45] 92.3% | viability, T/C [46] 74.7% | viability, T/C [29] 67.9% | viability, T/C [30] 79.8% | viability, T/C [47] 85.5% | viability, T/C [48] 79.5% | viability, T/C [49] 71.2% | viability, T/C [50] 83.7%
> 10 µM: IC50 (second compound 0.1 µM) | IC50 (second compound 0.316 µM) | IC50 (second compound 1 µM) | IC50 (second compound 3.16 µM) | IC50 (second compound 10 µM)

Cn1ncnc1[C@H]1c2n[nH]c(=O)c3cc(F)cc(c23)N[C@@H]1c1ccc(F)cc1 + CC1OCC2(CCN(c3cnc(Sc4ccnc(N)c4Cl)c(N)n3)CC2)C1N
inactive: viability, T/C [1] 94.9% | viability, T/C [2] 94.9% | viability, T/C [3] 99.9% | viability, T/C [4] 109% | viability, T/C [5] 103% | viability, T/C [6] 94.4% | viability, T/C [7] 95.5% | viability, T/C [8] 83.6% | viability, T/C [9] 98.6% | viability, T/C [10] 85.5% | viability, T/C [11] 87.2% | viability, T/C [12] 76.8% | viability, T/C [13] 85.7% | viability, T/C [14] 86% | viability, T/C [15] 93.2% | viability, T/C [16] 73.1% | viability, T/C [17] 74.8% | viability, T/C [18] 80.8% | viability, T/C [19] 67.1% | viability, T/C [20] 58.3% | viability, T/C [21] 71.4% | viability, T/C [22] 66% | viability, T/C [23] 63.6% | viability, T/C [24] 55.5% | viability, T/C [25] 46.8% | viability, T/C [26] 47.1% | viability, T/C [27] 33.4% | viability, T/C [28] 40.1% | viability, T/C [29] 44.2% | viability, T/C [30] 32.3%
> 0.1 µM: IC50 (second compound 0.1 µM) | IC50 (second compound 0.316 µM) | IC50 (second compound 1 µM) | IC50 (second compound 3.16 µM)
< 0.000316 µM: IC50 (second compound 10 µM)

COC(=O)c1ccc2c(C(=Nc3ccc(N(C)C(=O)CN4CCN(C)CC4)cc3)c3ccccc3)c(O)[nH]c2c1 + COc1cc2nc(C)nc(NC(C)c3cc(N)cc(C(F)(F)F)c3)c2cc1OC1CCOC1
5.43 µM: IC50 (second compound 0.316 µM)
2.29 µM: IC50 (second compound 3.16 µM)
5.28 µM: IC50 (second compound 0.1 µM)
0.721 µM: IC50 (second compound 10 µM)
active: viability, T/C [42] 7.12% | viability, T/C [46] 0.2% | viability, T/C [50] 0.21%
4.65 µM: IC50 (second compound 1 µM)
inactive: viability, T/C [5] 100% | viability, T/C [6] 103% | viability, T/C [31] 103% | viability, T/C [32] 85.1% | viability, T/C [33] 85.6% | viability, T/C [34] 9.83% | viability, T/C [11] 93.6% | viability, T/C [12] 75% | viability, T/C [35] 79.2% | viability, T/C [36] 91.6% | viability, T/C [37] 74.2% | viability, T/C [38] 22.8% | viability, T/C [17] 71.9% | viability, T/C [18] 71.6% | viability, T/C [39] 73.1% | viability, T/C [40] 85.1% | viability, T/C [41] 71.3% | viability, T/C [23] 73.4% | viability, T/C [24] 75.4% | viability, T/C [43] 84.4% | viability, T/C [44] 74.5% | viability, T/C [45] 40.2% | viability, T/C [29] 68.6% | viability, T/C [30] 79.1% | viability, T/C [47] 48.6% | viability, T/C [48] 54.4% | viability, T/C [49] 12.4%
